Data set [1] in a line: Half-life in plasma. The data set is classed as ADME, cell-free.
The next data set concerns Plasmodium falciparum. In words: In vitro inhibitory activity against the chloroquine-resistant Plasmodium falciparum W2 Indochina. The data set is classed as functional, organism-based.
Data set [2] is described as follows: Partition coefficient (logP). The data set is classed as physicochemical. Particulars: octanol/water.

Each structure is given as a SMILES string.

In the case of `C[C@H]1[C@@H](C(=O)OCCC(=O)[O-])O[C@@H]2O[C@]3(C)CC[C@H]4[C@H](C)CC[C@@H]1C24OO3.[Na+]`, the half-life (usually the time needed for the level to fall by half in the phase considered) in data set [1] is under 2 h.
`C[C@@H]1CC[C@H]2[C@@H](C)[C@](O[Si](C)(C)C)(C(F)(F)F)O[C@@H]3O[C@]4(C)CC[C@@H]1C32OO4`: the IC50 (commonly the point on the concentration scale where inhibition reaches its midpoint) in the data set with Plasmodium falciparum worked out at 72 nM.
Consider `CO[C@H]1O[C@@H]2OC3(C)CC[C@H]4[C@H](C)CC[C@@H]([C@H]1C)[C@@]24OO3` (single isomer, unassigned) [ARTEMETHER], for which the log partition coefficient (logP) – broadly, the decadic logarithm of the partition coefficient of the neutral form, usually between octanol and water – in data set [2] is 3.36. This compound had a half-life in data set [1] of under 2 h.
Regarding `C[C@@H]1CC[C@H]2[C@@H](C)C(=O)O[C@@H]3OC4(C)CC[C@@H]1[C@]32OO4` (single isomer, unassigned) [ARTEMISININ], the half-life in data set [1] was under 2 h.

Values taken from ChEMBL document CHEMBL1136644, “Alkylation of manganese(II) tetraphenylporphyrin by antimalarial fluorinated artemisinin derivatives” (Bioorg Med Chem Lett, 2003).
